Legend:
[1] = biological target: T1, 5-HT2C receptor (Sus scrofa, UniProt K7GSR7); assay: 5-HT2C receptor binding ([3H]mesulergine, pig brain choroid plexus membrane preparation); conditions: tritiated mesulergine, 37° C., read-out: Inhibition of receptor binding of the radioactive ligand, 5-HT2C (Ki)
T1 construct: pig brain choroid plexus membrane preparation; from tissue; host or cells: pig brain choroid plexus membrane preparation
T1 sequence (K7GSR7 1-457): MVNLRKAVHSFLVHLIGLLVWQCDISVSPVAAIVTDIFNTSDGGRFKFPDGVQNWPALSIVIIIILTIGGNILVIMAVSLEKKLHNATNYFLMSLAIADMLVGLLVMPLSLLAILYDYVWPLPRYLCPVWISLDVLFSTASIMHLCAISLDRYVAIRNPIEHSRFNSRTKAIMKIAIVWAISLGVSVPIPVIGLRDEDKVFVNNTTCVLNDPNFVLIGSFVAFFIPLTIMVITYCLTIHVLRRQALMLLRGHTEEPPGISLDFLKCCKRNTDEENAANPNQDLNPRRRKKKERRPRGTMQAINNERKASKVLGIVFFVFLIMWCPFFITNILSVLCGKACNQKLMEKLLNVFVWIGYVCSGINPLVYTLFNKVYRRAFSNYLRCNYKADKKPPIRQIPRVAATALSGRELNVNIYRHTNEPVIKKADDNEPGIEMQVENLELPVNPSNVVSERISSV
Method: (§1) 5-HT2A and 5-HT2C receptor binding was measured according to the methods described by Leysen et al. /Mol. Pharmacol., 21, 301 (1981)/ and Pazos et al. /Eur. J. Pharmacol., 106, 539 (1985)/, respectively. 5-HT2A receptor binding was measured in rat brain frontal cortex membrane preparation using tritiated ketanserine /3-/2-(4-fluorobenzoyl)- -1-piperidinyl/ethyl-2,4-(1H,3H)-quinazoline-dione/(60-90 Ci/mmole) as ligand. 5-HT2C receptor binding was measured in pig brain choroid plexus membrane preparation using tritiated mesulergine /N'-/(8)-1,6-dimethyl-ergoline-8-yl/-N,N-dimethylsulfamide (70-85 Ci/mmole) as the ligand. Non-specific binding to 5-HT2A and 5-HT2C receptors were determined in the presence of 10 micro M cyproheptadine/4-(5H-dibenzo/a,d/cycloheptene-5-ylidene)-1-methylpiperidine/ and 1 micro M mianserine/1,2,3,4,10,14b-hexahydro-2-methyldibenzo-/c,f/pyrazino/1,2-a/azepine/, respectively. The final incubation volumes were 250 and 1000 microlitres. Samples were incubated for 15 and 30 minutes at 37° C. Incubation was stopped by adding 9 ml of ice-cold 50 mM tris(hydroxymethyl)-aminomethane hydrochloride (pH=7.7) to the reaction mixture. The samples were rapidly filtered through Whatman GF/B glass fiber filters using reduced pressure. Before use, the filters were soaked in a 0.05% poly-ethyleneimine solution for 2 to 3 hours. Radioactivity of the filters was determined by a scintillation spectrometer.

[2] = biological target: T2, 5-HT2A receptor (Rattus norvegicus, UniProt P14842); assay: 5-HT2A receptor binding ([3H]ketanserine, rat brain frontal cortex membrane preparation); conditions: tritiated ketanserine, 37° C., read-out: Inhibition of receptor binding of the radioactive ligand, 5-HT2A (Ki)
T2 construct: rat brain frontal cortex membrane preparation; from tissue; host or cells: rat brain frontal cortex membrane preparation
Method: as §1

[3] = biological target: T3, 5-HT2A receptor (Oryctolagus cuniculus, UniProt G1SYA7); assay: 5-HT2A receptor antagonistic effect: inhibition of 5-HT-evoked contractions on isolated rabbit aortic strips; type: cell-based, rabbit (New-Zealand, male, white); conditions: 5-HT 10^-6 M; phenoxybenzamine 10^-8 M; tranylcypramine 10^-7 M; 10 minutes incubation
T3 construct: The thoracic aorta segment after the aortic arch was removed; from tissue; host or cells: rabbit thoracic aorta, helical strips
Method: New-Zealand, male, white rabbits weighing 2.0 to 2.5 kg were killed by a blow on the head. The thoracic aorta segment after the aortic arch was removed and placed into a Krebs' solution (NaCl 118 mM, KCl 4.6 mM, NaHCO3 25 mM, glucose 10.5 mM, […] 1 mM, KH2PO4 1 mM, CaCl2 2.6 mM). The aorta was carefully cleaned from fat and connective tissue, and was cut into 3 mm wide and 30 mm long helical strips. Four strips were obtained from each rabbit. The strips were equilibrated at 37° C. for 60 minutes in an organ chamber filled with Krebs' solution. The strips were also oxygenated by bubbling carbogen gas (5% of carbon dioxide and 95% of oxygen) through the solution. The strips were stretched by 1 g tension.
The contractions were measured by a Hugo Sachs K-30 type strain gauge, and were registered on a Multicorder type polygraph. During the last 40 minutes of the equilibration, the MAO enzym inhibitor tranylcypramine (10^-7 M) /chemical name: (±)-trans-2-phenylcyclopropylamine/ was also added to the bath.
Any alpha-adrenergic effects of the test compounds were eliminated by 10^-8 M of phenoxybenzamine /N-(2-chloroethyl)-N-(1-methyl-2-phenoxyethyl)benzylamine/ /Clancy et al., J. Pharm. Exp. Ther., 233, 761 (1985). Testing of the serotonergic antagonistic effect was started at the 90th minute of incubation. The stability and reproducibility of the contractile response of the aortic strips to serotonin was tested by two consecutive application and wash-out procedures of 10^-6 M concentration of 5-HT, 40 minutes apart. […] 30 minutes after the second testing, a preset concentration of the test compound was added to the bath, and, after a 10 minutes incubation time, the response to 10^-6 M of 5-HT was determined in the presence of the compound to be tested.
Two different concentrations of a given compound were tested on each aortic strip by the above method. Reproducibility of the control 5-HT-evoked response was checked between testing the two concentrations of the compound.
IC50 was calculated by nonlinear curve fitting of the inhibitory effect of increasing concentrations of the test compound.

T2 sequence (P14842 whole entry): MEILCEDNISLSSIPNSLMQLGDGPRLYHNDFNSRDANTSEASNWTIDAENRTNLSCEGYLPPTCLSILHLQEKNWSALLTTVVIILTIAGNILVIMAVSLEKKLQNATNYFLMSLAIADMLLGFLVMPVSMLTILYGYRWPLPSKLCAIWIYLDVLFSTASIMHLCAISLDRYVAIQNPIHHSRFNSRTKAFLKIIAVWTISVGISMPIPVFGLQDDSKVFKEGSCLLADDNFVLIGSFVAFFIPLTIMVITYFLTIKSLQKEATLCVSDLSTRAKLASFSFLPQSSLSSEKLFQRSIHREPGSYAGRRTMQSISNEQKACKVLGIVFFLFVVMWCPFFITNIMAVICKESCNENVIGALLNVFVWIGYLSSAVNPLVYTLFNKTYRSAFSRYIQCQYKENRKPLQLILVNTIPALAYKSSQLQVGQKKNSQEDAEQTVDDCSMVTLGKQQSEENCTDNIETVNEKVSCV
T3 sequence (G1SYA7 1-469): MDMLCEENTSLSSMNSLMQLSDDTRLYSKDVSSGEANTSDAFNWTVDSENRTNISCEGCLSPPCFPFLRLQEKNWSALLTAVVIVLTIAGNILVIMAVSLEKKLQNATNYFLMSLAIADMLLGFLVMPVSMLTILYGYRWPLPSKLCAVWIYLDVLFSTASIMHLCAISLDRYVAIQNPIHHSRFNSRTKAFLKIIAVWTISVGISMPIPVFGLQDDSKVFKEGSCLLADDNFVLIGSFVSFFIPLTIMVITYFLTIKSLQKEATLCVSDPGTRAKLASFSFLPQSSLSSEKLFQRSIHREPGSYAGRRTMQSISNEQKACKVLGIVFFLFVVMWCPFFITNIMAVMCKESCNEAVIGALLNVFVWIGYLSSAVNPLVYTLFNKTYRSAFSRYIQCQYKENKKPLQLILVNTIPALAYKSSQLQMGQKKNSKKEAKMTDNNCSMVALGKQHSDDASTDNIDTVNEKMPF

| Structure (SMILES) | Ki [1] | Ki [2] | IC50 [3] |
| --- | --- | --- | --- |
| Nc1cc(N)nc(SCCN2CCN(Cc3ccc(F)cc3)CC2)n1 [Example 3, 2-[2-/4-(4-Fluorobenzyl)-1-piperazinyl/-ethylthio]-7-4,6-diaminopyrimidine] | > 100 nM | 58 nM | 960 nM |
| Nc1cc(N)nc(SCCN2CCN(Cc3ccccc3Cl)CC2)n1 [Example 5, 2-[2-/4-(2-Chlorobenzyl)-1-piperazinyl/-ethylthio]-4,6-diaminopyrimidine] | 67 nM | 16 nM | 250 nM |
| COc1cccc(CN2CCN(CCSc3nc(N)c(Cc4ccccc4)c(N)n3)CC2)c1 [Example 12, 2-[2-/4-(3-Methdxybenzyl)-1-piperazinyl/-ethylthio]-4,6-diamino-5-benzylpyrimidine] | 47 nM | > 100 nM | – |
| Nc1nc(SCCN2CCN(Cc3ccccc3Cl)CC2)nc(N)c1Cc1ccccc1 [Example 13, 2-[2-/4-(2-Chlorobenzyl)-1-piperazinyl/-ethylthio]-4,6-diamino-5-benzylpyrimidine] | 12 nM | 20 nM | 120 nM |
| Nc1nc(SCCN2CCN(Cc3ccc([N+](=O)[O-])cc3)CC2)nc(N)c1Cc1ccccc1 [Example 14, 2-[2-/4-(4-Nitrobenzyl)-1-piperazinyl/-ethylthio]-4,6-diamino-5-benzylpyrimidine] | > 100 nM | 78 nM | 6000 nM |
| Nc1nc(SCCN2CCN(Cc3ccc([N+](=O)[O-])cc3)CC2)nc(N)c1Cc1ccccc1O [Example 19, 2-[2-/4-(4-Nitrobenzyl)-1-piperazinyl/-ethylthio]-4,6-diamino-5-(2-hydroxybenzyl)-pyrimidine] | > 100 nM | 48 nM | – |
| Nc1nc(SCCN2CCN(Cc3cccc(C(F)(F)F)c3)CC2)nc(N)c1Cc1ccc(F)cc1 [Example 21, 2-[2-/4-(3-Trifluoromethylbenzyl)-1-piperazinyl/ethylthio]4,6-diamino-5-(4-fluorobenzyl)pyrimidine] | 39 nM | > 100 nM | – |
| COc1ccc(Cc2c(N)nc(SCCN3CCN(Cc4ccc(C)cc4)CC3)nc2N)cc1 [Example 23, 2-[2-/4-(4-Methylbenzyl)-1-piperazinyl/-ethylthio]-4,6-diamino-5-(4-methoxybenzyl)-pyrimidine] | > 100 nM | 20 nM | 670 nM |
| COc1ccc(Cc2c(N)nc(SCCN3CCN(Cc4ccccc4C)CC3)nc2N)cc1 [Example 24, 2-[2-/4-(2-Methylbenzyl)-1-piperazinyl/-ethylthio]-4,6-diamino-5-(4-methoxybenzyl)-pyrimidine] | 22 nM | 18 nM | 240 nM |
| COc1ccc(Cc2c(N)nc(SCCN3CCN(Cc4ccccc4F)CC3)nc2N)cc1 [Example 25, 2-[2-/4-(2-Fluorobenzyl)-1-piperazinyl/-ethylthio]-4,6-diamino-5-(4-methoxybenzyl)-pyrimidine] | > 100 nM | 20 nM | 280 nM |
| COc1ccc(Cc2c(N)nc(SCCN3CCN(Cc4cccc(C#N)c4)CC3)nc2N)cc1 [Example 26, 2-[2-/4-(3-Cyanobenzyl)-1-piperazinyl/-ethylthio]-4,6-diamino-5-(4-methoxybenzyl)-pyrimidine] | 45 nM | 48 nM | 260 nM |
| COc1ccc(Cc2c(N)nc(SCCN3CCN(Cc4ccccc4C#N)CC3)nc2N)cc1 [Example 27, 2-[2-/4-(2-Cyanobenzyl)-1-piperazinyl/-ethylthio]-4,6-diamino-5-(4-methoxybenzyl)-pyrimidine] | – | – | 900 nM |
| COc1ccc(Cc2c(N)nc(SCCN3CCN(Cc4cccc(OC)c4)CC3)nc2N)cc1 [Example 28, 2-[2-/4-(3-Methoxybenzyl)-1-piperazinyl/-ethylthio]-4,6-diamino-5-(4-methoxybenzyl)-pyrimidine] | 50 nM | > 100 nM | – |
| COc1ccccc1Cc1c(N)nc(SCCN2CCN(Cc3ccc([N+](=O)[O-])cc3)CC2)nc1N [Example 34, 2-[2-/4-(4-Nitrobenzyl)-1-piperazinyl/-ethylthio]-4,6-diamino-5-(2-methoxy-benzyl)pyrimidine] | > 100 nM | 71 nM | – |
| COc1ccc(Cc2c(N)nc(SCCN3CCN(Cc4cccc(C(F)(F)F)c4)CC3)nc2N)cc1 [Example 35, 2-[2-/4-(3-Trifluoromethylbenzyl)-1-piperazinyl/-ethyl-thio]-4,6-diamino-5-(4-methoxybenzyl)pyrimidine] | 69 nM | > 100 nM | – |
| COc1ccccc1Cc1c(N)nc(SCCN2CCN(Cc3cccc(C(F)(F)F)c3)CC2)nc1N [Example 36, 2-[2-/4-(3-Trifluoromethylbenzyl)-1-piperazinyl/ethylthio]-4,6-diamino-5-(2-methoxybenzyl)pyrimidine] | 18 nM | > 100 nM | – |
| Cc1ccccc1CN1CCN(CCSc2nc(N)c(Cc3ccccc3Cl)c(N)n2)CC1 [Example 39, 2-[2-/4-(2-Methylbenzyl)-1-piperazinyl/-ethylthio]-4,6-diamino-5-(2-chloro-benzyl)pyrimidine] | 27 nM | – | 300 nM |
| Cc1ccc(CN2CCN(CCSc3nc(N)c(Cc4ccccc4Cl)c(N)n3)CC2)cc1 [Example 40, 2-[2-/4-(4-Methylbenzyl)-1-piperazinyl/-ethylthio]-4,6-diamino-5-(2-chlorobenzyl)-pyrimidine] | > 100 nM | 21 nM | – |
| Nc1nc(SCCN2CCN(Cc3ccccc3Cl)CC2)nc(N)c1Cc1ccc(Cl)cc1 [Example 47, 2-[2-/4-(2-Chlorobenzyl)-1-piperazinyl/ethylthio]-4,6-diamino-5-(4-chlorobenzyl)-pyrimidine] | 33 nM | > 100 nM | – |
| CN(C)c1ccc(Cc2c(N)nc(SCCN3CCN(Cc4ccccc4C#N)CC3)nc2N)cc1 [Example 54, 2-[2-/4-(2-Cyanobenzyl)-1-piperazinyl/-ethylthio]-4,6-diamino-5-(4-dimethylamino-benzyl)pyrimidine] | – | – | 570 nM |
| COc1ccc(CN2CCN(CCSc3nc(N)c(Cc4cc(OC)c(OC)c(OC)c4)c(N)n3)CC2)cc1 [Example 66, 2-[2-/4-(4-Methoxybenzyl)-1-piperazinyl/-ethylthio]-4,6-diamino-5-(3,4,5-trimethoxy-benzyl)pyrimidine] | > 100 nM | 61 nM | – |
| CN(C)c1ccc(Cc2c(N)nc(SCCN3CCN(Cc4ccccc4Cl)CC3)nc2N)cc1 [Example 101, 2-[2-/4-(2-Chlorobenzyl)-1-piperazinyl/-ethylthio]-4,6-diamino-5-(4-dimethylamino-benzyl)pyrimidine] | 24 nM | 16 nM | – |

Source: US6130215A, “Piperazinylalkylthiopyrimidine derivatives, pharmaceutical compositions containing the same and a process for the preparation of the novel compounds” (Egis Gyoyszergyar RT, priority 1995, dated 2000)
